The values below come from US5103013A, “Dithioketene derivatives, pharmaceutical compositions containing the same and uses thereof” (Yuhan Corporation, Ltd., priority 1988, dated 1992).

The subject of series [1] is serum alanine aminotransferase (ALT) increase induced by CCl4. Briefly: Protective effect against acute hepatic damage induced by carbon tetrachloride (suppression of serum ALT increase). In kind it is in vivo. Particulars: Mus musculus; mice, oral 50 mg/kg in 0.2% CMC-Na, 6 h before oral CCl4 (50 ul/kg); serum ALT 24 h after CCl4; read-out: Inhibitory (%) (protective effect of test compound against increase of serum ALT activity induced by CCl4). The method, then: Carbon tetrachloride (CCl4) is a well-known hepatotoxic agent, thus widely used to produce experimental animal models for screening the potential drugs acting upon hepatic diseases. In this experiment test compounds were administered to mice prior to treatment with CCl4. 24 Hours after the CCl4 treatment, the animals were sacrificed and serum alanine aminotransferase (ALT) levels were determined. The hepatoprotective effect of a test compound was evaluated by the suppressive action against the increase of serum ALT induced by CCl4.
The experimental animals were divided into the normal, the CCl4 treated and the test compound treated groups. Each group consisted of 8 mice with body weight of 20-25 grams. The test compounds were suspended in 0.2% sodium carboxymethylcellulose (CMC--Na) solution and administered orally at the dose of 50 mg/125 ml/kg body weight. Only the vehicle 0.2% CMC--Na solution, was administered to the normal and to the CCl4 treated group instead of the test compound suspension.
6 Hours after the drug administration, the CCl4 solution in olive oil was administered orally to the CCl4 treated-group and the test compound treated group at the dose of 50 ul/25 ml olive oil/kg body weight. The normal group was administered with olive oil only at the same dose. 24 Hours after the CCl4 administration, blood samples were collected from the orbital sinus of the animals and the sera were monitored using an automatic blood analyzer (Gilford, SBA 300). The hepatoprotective effect of the test compounds was expressed by the suppressive percentage against the increase of serum ALT level induced by CCl4 calculated by the following formula; [formula]

The test system of series [2] is serum ALT increase induced by CCl4. Briefly: Determination of 50% effective dose (ED50) against CCl4-induced serum ALT increase. Format: in vivo. Particulars: Mus musculus; mice, oral 50, 25, 12.5 or 6.25 mg/kg, 6 h before CCl4; serum ALT 24 h after CCl4; estimated from dose-response curves; read-out: ED50 (50% effective dose of test compound). The protocol:
The various doses of test compounds were administered to mice, followed by the treatment with CCl4 after 6 hours. 24 Hours after the CCl4 treatment, the serum ALT level of the animals were determined. The hepatoprotective effect of the test compounds and the doses were plotted to form doseresponse curves, from which the ED50 doses of the test compounds were estimated.
The experimental animals were divided into the normal, the CCl4 treated and the test compound treated groups. Each group consisted of 8 mice with body weight of 20-25 grams. The test compounds were suspended in 0.2% CMC--Na solution and administered orally at a dose of 50 mg, 25 mg, 12.5 mg or 6.25 mg/125 ml/kg body weight. Only the vehicle, 0.2% CMC--Na solution, was administered to the normal and to the CCl4 treated group instead of the test compound suspension. 6 Hours later, the CCl4 solution in olive oil was administered orally to the CCl4 treated and the test compound treated groups at the dose of 50 ul/25 ml oilve oil/kg body weight. The norm group was administered olive oil only at the same dose. 24 Hours after the CCl4 administration, blood samples were collected from the orbital sinuses of the animals and the sera were obtained by centrifugation. The serum ALT activities were monitored and the hepatoprotective effect of the test compounds were calculated by the same method as described in experiment 1. The percentages were plotted against the corresponding doses of the test compounds to make dose-response curves, from which the 50% effective dose of test compound was estimated.

The nature of series [3]: Acute toxicity of test compounds (oral LD50). The conditions noted are these: mouse, in vivo, male ICR mice, 0.2% CMC-Na suspension, dead mice counted for 14 days, read-out: LD50 of Test Compound (column head prints ED50). The protocol:
Each test compound was suspended in 0.2% CMC--Na solution in various concentrations to make test suspensions. The test suspensions were administered orally to male ICR mice (10 in each group) at various doses. The number of dead mice was counted for 14 days and the value of median lethal dose (LD50, g/kg) was calculated by the Hitchifield-Wilcoxon method.

Some results are limits rather than exact numbers.

Usually ED50 stands for the midpoint of the dose-response relation. The term LD50 denotes the dose expected to kill half of the subjects tested.

`CC(C)OC(=O)C(C(=O)NCc1ccccc1)=C1SCS1` [Example 15, Isopropyl 2-(1,3-dithietan-2-ylidene)-2-(N-benzylcarbamoyl)acetate]: the inhibition in vivo at 50 mg/kg in series [1] was found to be 97%. Besides, the ED50 in series [2] is 10 mg/kg.

Take `CC(C)OC(=O)C(C(=O)Nc1ccc(C(F)(F)F)cc1)=C1SCS1` [Example 19, Isopropyl 2-(1,3-dithietan-2-ylidene)-2-[N-(4-trifluoromethylphenyl)carbamoyl]acetate]: the inhibition in vivo at 50 mg/kg in series [1] stood at 100%. The ED50 in series [2] was 6.25 mg/kg.

`CC(C)OC(=O)C(C(=O)Nc1ccc(C(F)(F)F)cc1)=C1SCCS1` [Example 21, Isopropyl 2-(1,3-dithiolan-2-ylidene)-2-[N-(4-trifluoromethylphenyl)carbamoyl]acetate]: the inhibition in vivo at 50 mg/kg in series [1] is 98%. Further, the ED50 in series [2] is under 50 mg/kg.

With `CC(C)OC(=O)C(C(=O)Nc1nncs1)=C1SCS1` [Example 28, Isopropyl 2-(1,3-dithietan-2-ylidene)-2-[N-(1,3,4-thiadiazol-2-yl)carbamoyl]acetate], the inhibition in vivo at 50 mg/kg in series [1] was determined as 100%. For the same molecule, the LD50 at 336 h in series [3] was over 5000 mg/kg. Moreover, the ED50 in series [2] was under 6.25 mg/kg.

`CC(C)OC(=O)C(C(=O)Nc1ccccc1)=C1SCS1` [Example 18, Isopropyl 2-(1,3-dithietan-2-ylidene)-2-(N-phenylcarbamoyl)acetate]: the inhibition in vivo at 50 mg/kg in series [1] was 100%. In addition, the ED50 in series [2] is 7 mg/kg.

Take `CC(C)OC(=O)C(C(=O)Nc1nccs1)=C1SCS1` [Example 22, Isopropyl 2-(1,3-dithietan-2-ylidene)-2-[N-(2-thiazolyl)carbamoyl]acetate]: in series [1], the inhibition in vivo at 50 mg/kg turned out to be 100%. Besides, the LD50 at 336 h in series [3] was over 5000 mg/kg. The ED50 in series [2] was under 6.25 mg/kg.

As for `CC(C)OC(=O)C(C(=O)Nc1ccccn1)=C1SCS1` [Example 29, Isopropyl 2-(1,3-dithietan-2-ylidene)-2-[N-(2-pyridyl)carbamoyl]acetate], the inhibition in vivo at 50 mg/kg in series [1] is 100%. Further, in series [3], the LD50 at 336 h is over 5000 mg/kg. In addition, the ED50 in series [2] is 10 mg/kg.

As for `CC(C)OC(=O)C(C(N)=O)=C1SCS1` [Example 13, Isopropyl 2-(1,3-dithietan-2-ylidene)-2-carbamoylacetate], in series [1], the inhibition in vivo at 50 mg/kg was 28%. The LD50 at 336 h in series [3] is under 5000 mg/kg. Besides, the ED50 in series [2] is over 50 mg/kg.

For the molecule `CC(C)OC(=O)C(C(=O)Nc1ccccn1)=C1SCCS1` [Example 32, Isopropyl 2-(1,3-dithiolan-2-ylidene)-2-[N-(2-pyridyl)carbamoyl]acetate], the inhibition in vivo at 50 mg/kg in series [1] is 85%. Also, the ED50 in series [2] is under 50 mg/kg.

For `Cc1csc(NC(=O)C(C(=O)OC(C)C)=C2SCS2)n1` [Example 24, Isopropyl 2-(1,3-dithietan-2-ylidene)-2-[N-(4-methyl-2-thiazolyl)carbamoyl]acetate], the inhibition in vivo at 50 mg/kg in series [1] was determined as 100%. The LD50 at 336 h in series [3] was over 5000 mg/kg. Also, in series [2], the ED50 is under 6.25 mg/kg.

For `Cc1csc(NC(=O)C(C(=O)OC(C)C)=C2SCCS2)n1` [Example 26, Isopropyl 2-(1,3-dithiolan-2-ylidene)-2-[N-(4-methyl-2-thiazolyl)carbamoyl]acetate], in series [1], the inhibition in vivo at 50 mg/kg was 98%. Besides, in series [2], the ED50 was under 50 mg/kg.

Turning to `CC(C)OC(=O)C(C(=O)Nc1nc(-c2ccccc2)cs1)=C1SCS1` [Example 27, Isopropyl 2-(1,3-dithietan-2-ylidene)-2-[N-(4-phenyl-2-thiazolyl)carbamoyl]acetate], the inhibition in vivo at 50 mg/kg in series [1] was 11%. For the same molecule, in series [2], the ED50 was over 50 mg/kg.
